This is an account of results in PMC12362783 (Advanced Science, 2025).

What all share (assay type): cell-based
Assay [1] deals with MDA‐MB‐468 cells. As to the kind of experiment: Cell apoptosis assay, Annexin V‐FITC/PI. The conditions noted are these: MDA‐MB‐468, 72 h. Here is the method:
(§1) The cell apoptosis analysis was performed with cells seeded in 6‐well plates in growth media. The cells were allowed to attach overnight (8 h). The cultures were treated with different tested drugs for 72 h and evaluated using an Annexin V Flow Kit (BioLegend#B367750) according to the manufacturer's instructions. The data were analyzed by FlowJo software (Tree Star, Inc., Ashland, OR).

Assay [2] deals with MDA‐MB‐231 cells. Kind of assay: Cell apoptosis assay, Annexin V‐FITC/PI. The settings on record: MDA‐MB‐231, 72 h. How it is done:
as §1

Assay [3] concerns MDA‐MB‐468 cells. Kind of assay: Western blotting analysis. The conditions noted are these: 48 h. How it is done:
Cells were washed with cold PBS and lysed in RIPA buffer containing protease inhibitors (MCE, HY‐K0010). The lysate was centrifuged (13 000 rpm, 4 °C, 15 min); the protein concentrations were determined by the BCA Assay Kit (Beyotime, p0012s). Proteins were loaded onto 10% SDS‐PAGE gel and then transferred onto polyvinylidene fluoride (Millipore) membranes. The membranes were blocked for 1 h, incubated with primary antibodies overnight at 4 °C, and then washed three times with Tris‐buffered saline with Tween 20 (TBST) for 10 min. After incubating with the secondary HRP antibody for 1 h at room temperature, the membranes were washed three times with TBST for 10 min and then exposed on autoradiograph films using enhanced chemiluminescence. The primary antibodies used were ATR (1/1000 dilution, CST#13 934), PARP1 (1/1000 dilution, CST#9532), BCL‐2 (1/1000 dilution, CST#4223), Bax (1/1000 dilution, CST#5023), Caspase 3 (1/1000 dilution, CT#9662), Cleaved caspase 3 (1/1000 dilution, CST#9661), E‐cadherin (1/1000 dilution, CST#3195), Vimetin (1/1000 dilution, CST#5741), p‐CHK1 (1/1000 dilution, CST#2348), CHK1 (1/1000 dilution, CST#2360), CDK1 (Proteintech#19532‐1‐AP), p‐CDK1 (CST#9114), γH2AX (1/1000 dilution, CST#9718), and β‐Actin (1/1000 dilution, Proteintech# 66009‐1‐Ig).

Assay [4] relates to MDA‐MB‐468 cells. Kind of assay: Transwell invasion assay (Matrigel). The settings on record: 24 h, vs AZD6738 and Olaparib alone or their combination. How it is done: (§2) For the wound‐healing assay, MDA‐MB‐231 cells were seeded into 6‐well plates and grown to 80% confluence. A scratch was made in the cell monolayer using a 20 µL pipette tip, and the cells were washed with PBS to remove floating cells and debris. The cells were then incubated in serum‐free medium. Cells are divided into control and drug treatment Cells in the scratched area were imaged at 0 and 48 h using microscopy, and the distance traveled by cells at the leading edge of the wound at each time point was measured. To assess cell migration, a transwell assay was performed. […] Following 24 h of incubation, the filters were fixed in 4% paraformaldehyde, stained with 0.1% crystal violet, and then imaged and counted under a microscope to determine the number of invading cells. To assess cell invasion, the transwell plate was coated with a layer of Matrigel, and the rest procedure is similar to what has been described above.

The test system of assay [5] is MDA‐MB‐231 cells. Kind of assay: Transwell invasion assay (Matrigel). The settings on record: 24 h, vs AZD6738 and Olaparib alone or their combination. Here is the method:
as §2

Assay [6] has as its system TNBC cells (MDA‐MB‐231, MDA‐MB‐468, MDA‐MB‐436). As to the kind of experiment: Anti‐proliferative activity across three TNBC cell lines (summary). The conditions noted are these: read-out: IC50 range across three TNBC cell lines. How it is done:
Cells were grown at 37 °C, under 95% air and 5% CO₂ until they reached about 70% confluence and were subcultured at least twice before the experiment. Cells were seeded at a density of 1000 cells/well in two 384‐well white plates, and the plates were placed in a 5% CO₂ incubator overnight. Growth viability was determined by the CellTiter‐Glo luminescent viability assay (Promega) 5 days after drug treatment. Cell viability was measured immediately after dosing (Day 0) and after 5 days of incubation using CellTiter‐Glo (CTG, Promega, G7573). Relative viability was calculated by normalizing the raw luminescence counts of the treated groups to those of the DMSO control groups. IC₅₀ values were calculated using sigmoidal dose‐response curve fitting with GraphPad Prism 9.0 software.

The mark [7] stands for this setting: compared to the combination group.

As a reminder, the IC50 is the concentration at which inhibition is half-maximal. Turning to `C[C@@H]1COCCN1c1cc(CNC(=O)c2ccc(C(=O)N3CCN(C(=O)c4cc(Cc5n[nH]c(=O)c6ccccc56)ccc4F)CC3)cc2)nc(-c2ccnc3[nH]ccc23)n1` [Compound B8, (R)‐4‐(4‐(2‐fluoro‐5‐((4‐oxo‐3,4‐dihydrophthalazin‐1‐yl)methyl)benzoyl)piperazine‐1‐carbonyl)‐N‐((6‐(3‐methylmorpholino)‐2‐(1H‐pyrrolo[2,3‐b]pyridin‐4‐yl)pyrimidin‐4‐yl)methyl) benzamide], the “ability to induce apoptosis vs combination of AZD6738 and Olaparib” value in the assay on MDA‐MB‐468 cells [1] is given as “markedly stronger capacity to induce apoptosis”. Also, the “ability to induce apoptosis vs combination of AZD6738 and Olaparib” value in the assay on MDA‐MB‐231 cells [2] is given as “markedly stronger capacity to induce apoptosis”. Besides, in the assay with MDA‐MB‐468 cells [3], the “BCL‐2 protein expression (Western blot)” value is on record as “significantly decreased the protein expression of BCL‐2”, the “CDK1 Tyr15 phosphorylation (Western blot)” value is listed as “enhanced CDK1 Tyr15 phosphorylation” and the “CHK1 Ser345 phosphorylation (Western blot)” value is given as “significantly decreased CHK1 Ser345 phosphorylation”. In the assay on MDA‐MB‐468 cells [3] (setting [7]), the “E‐cadherin expression (Western blot)” value was “significant increase in the expression of the epithelial cell marker E‐cadherin” and the “Vimentin expression (Western blot)” value is “decrease in the expression of the mesenchymal cell marker Vimentin”. Further, the “BAX and cleaved‐caspase‐3 protein expression (Western blot)” value in the assay with MDA‐MB‐468 cells [3] (compared to the combination of AZD6738 and Olaparib) was “induced more BAX and cleaved‐caspase‐3 protein expression”. Moreover, the “DSB marker γH2AX (Western blot)” value with MDA‐MB‐468 cells [3] (B8 1.0 and 2.0 µM) is reported as “significantly increased than under the combination treatment”. In the assay on MDA‐MB‐468 cells [3] (B8 1.0 and 2.0 µM, vs Olaparib or AZD6738 alone or in combination), the “protein levels of ATR and PARP1 (Western blot)” value is “reduction in the protein levels of both ATR and PARP1”. Also, the “invasive capacity” value in the assay on MDA‐MB‐468 cells [4] was “superior inhibitory effects on the invasive capacity”. Further, in the assay with MDA‐MB‐231 cells [5], the “invasive capacity” value is reported as “superior inhibitory effects on the invasive capacity”. Besides, in assay [6], the IC50 lay within 9 to 1890 nM.
